pIC50: −log10 of the molar value. Activity calls are given as the source filed them. The calls are words filed in the database; no cut-off is given here.
Columns and labels:
Assay type in all cases: functional, cell-based
A549 [1] = experiment: Cytotoxicity was evaluated against A549 tumor cell lines; Slightly active; conditions: Homo sapiens
B16 [2] = experiment: Cytotoxicity was evaluated against B16 tumor cell lines; Slightly active; conditions: Mus musculus
CCRF-CEM [3] = experiment: Cytotoxicity was evaluated against CEM tumor cell lines; Slightly active; conditions: Homo sapiens
NCI-H596 [4] = experiment: Cytotoxicity was evaluated against H596 tumor cell lines; Slightly active; conditions: Homo sapiens
NCI-H292 [5] = experiment: Cytotoxicity was evaluated against H292 tumor cell lines; Slightly active; conditions: Homo sapiens
HL-60 [6] = experiment: Cytotoxicity was evaluated against HL-60 tumor cell lines; Slightly active; conditions: Homo sapiens
Jurkat = experiment: In vitro test for antitumor activity against human Jurkat cell line using a formazan dye (MTT) conversion assay.
K562 [7] = experiment: Cytotoxicity was evaluated against K562 tumor cell lines; Slightly active; conditions: Homo sapiens
L1210 [8] = experiment: Cytotoxicity was evaluated against L1210 tumor cell lines; Slightly active; conditions: Mus musculus
MCF7 [9] = experiment: Cytotoxicity was evaluated against MCF-7 tumor cell lines; Slightly active; conditions: Homo sapiens
MOLT-4 [10] = experiment: Cytotoxicity was evaluated against Molt-4 tumor cell lines; Slightly active; conditions: Homo sapiens
NIH3T3 [11] = experiment: Cytotoxicity was evaluated against NIH3T3 tumor cell lines; Slightly active; conditions: Mus musculus
WI-38 [12] = experiment: Cytotoxicity was evaluated against WI38 tumor cell lines; Slightly active; conditions: Homo sapiens
WIL2 [13] = experiment: Cytotoxicity was evaluated against WIL2 tumor cell lines; Slightly active; conditions: Homo sapiens
A549 [14] = experiment: Cytotoxicity was evaluated against A549 tumor cell lines; Inactive; conditions: Homo sapiens
B16 [15] = experiment: Cytotoxicity was evaluated against B16 tumor cell lines; Inactive; conditions: Mus musculus
CCRF-CEM [16] = experiment: Cytotoxicity was evaluated against CEM tumor cell lines; Inactive; conditions: Homo sapiens
NCI-H596 [17] = experiment: Cytotoxicity was evaluated against H596 tumor cell lines; Inactive; conditions: Homo sapiens
NCI-H292 [18] = experiment: Cytotoxicity was evaluated against H292 tumor cell lines; Inactive; conditions: Homo sapiens
HL-60 [19] = experiment: Cytotoxicity was evaluated against HL-60 tumor cell lines; Inactive; conditions: Homo sapiens
K562 [20] = experiment: Cytotoxicity was evaluated against K562 tumor cell lines; Inactive; conditions: Homo sapiens
L1210 [21] = experiment: Cytotoxicity was evaluated against L1210 tumor cell lines; Inactive; conditions: Mus musculus
MCF7 [22] = experiment: Cytotoxicity was evaluated against MCF-7 tumor cell lines; Inactive; conditions: Homo sapiens
MOLT-4 [23] = experiment: Cytotoxicity was evaluated against Molt-4 tumor cell lines; Inactive; conditions: Homo sapiens
NIH3T3 [24] = experiment: Cytotoxicity was evaluated against NIH3T3 tumor cell lines; Inactive; conditions: Mus musculus
WI-38 [25] = experiment: Cytotoxicity was evaluated against WI38 tumor cell lines; Inactive; conditions: Homo sapiens
WIL2 [26] = experiment: Cytotoxicity was evaluated against WIL2 tumor cell lines; Inactive; conditions: Homo sapiens

SMILES	Cytotoxicity (A549 [1])	Cytotoxicity (B16 [2])	Cytotoxicity (CCRF-CEM [3])	Cytotoxicity (NCI-H596 [4])	Cytotoxicity (NCI-H292 [5])	Cytotoxicity (HL-60 [6])	pIC50 (Jurkat)	Cytotoxicity (A549 [14])	Cytotoxicity (B16 [15])	Cytotoxicity (CCRF-CEM [16])	Cytotoxicity (NCI-H596 [17])	Cytotoxicity (NCI-H292 [18])	Cytotoxicity (HL-60 [19])	Cytotoxicity (K562 [20])	Cytotoxicity (L1210 [21])	Cytotoxicity (MCF7 [22])	Cytotoxicity (MOLT-4 [23])	Cytotoxicity (NIH3T3 [24])	Cytotoxicity (WI-38 [25])	Cytotoxicity (WIL2 [26])	also measured
COc1cc2c(cc1OC)C(=O)/C(=C/c1cc(C)ccc1C)C2	Weak activity	Weak activity	Weak activity	Weak activity	Weak activity	Weak activity	4.52														Cytotoxicity (K562 [7]): Weak activity; Cytotoxicity (L1210 [8]): Weak activity; Cytotoxicity (MCF7 [9]): Weak activity; Cytotoxicity (MOLT-4 [10]): Weak activity; Cytotoxicity (NIH3T3 [11]): Weak activity; Cytotoxicity (WI-38 [12]): Weak activity; Cytotoxicity (WIL2 [13]): Weak activity
COc1cc2c(cc1OC)C(=O)/C(=C/c1cc(C)c(OC(=O)OCC(C)C)c(C)c1)C2	Weak activity	Weak activity	Weak activity	Weak activity	Weak activity	Weak activity	4.67														Cytotoxicity (K562 [7]): Weak activity; Cytotoxicity (L1210 [8]): Weak activity; Cytotoxicity (MCF7 [9]): Weak activity; Cytotoxicity (MOLT-4 [10]): Weak activity; Cytotoxicity (NIH3T3 [11]): Weak activity; Cytotoxicity (WI-38 [12]): Weak activity; Cytotoxicity (WIL2 [13]): Weak activity
COc1cc2c(cc1OC)C(=O)/C(=C/c1cccc(OC)c1OC)CC2							< 4.30	inactive	inactive	inactive	inactive	inactive	inactive	inactive	inactive	inactive	inactive	inactive	inactive	inactive	
COc1ccccc1/C=C1\CCc2cc(OC)c(OC)cc2C1=O							< 4.30	inactive	inactive	inactive	inactive	inactive	inactive	inactive	inactive	inactive	inactive	inactive	inactive	inactive	
COc1cc2c(c([N+](=O)[O-])c1OC)C(=O)/C(=C/c1cc(C)c([N+](=O)[O-])c(C)c1)C2							< 4.30	inactive	inactive	inactive	inactive	inactive	inactive	inactive	inactive	inactive	inactive	inactive	inactive	inactive	
COc1ccc(/C=C2\CCc3cc(OC)c(OC)cc3C2=O)cc1							< 4.30	inactive	inactive	inactive	inactive	inactive	inactive	inactive	inactive	inactive	inactive	inactive	inactive	inactive	
COc1cc2c(cc1OC)C(=O)/C(=C/c1cc(C)c([N+](=O)[O-])c(C)c1)C2	Weak activity	Weak activity	Weak activity	Weak activity	Weak activity	Weak activity	4.60														Cytotoxicity (K562 [7]): Weak activity; Cytotoxicity (L1210 [8]): Weak activity; Cytotoxicity (MCF7 [9]): Weak activity; Cytotoxicity (MOLT-4 [10]): Weak activity; Cytotoxicity (NIH3T3 [11]): Weak activity; Cytotoxicity (WI-38 [12]): Weak activity; Cytotoxicity (WIL2 [13]): Weak activity
COc1ccc2c(c1)C(=O)/C(=C/c1cc(C)c(O)c(C)c1)C2							< 4.30	inactive	inactive	inactive	inactive	inactive	inactive	inactive	inactive	inactive	inactive	inactive	inactive	inactive	
COc1cc2c(c(N)c1O)C/C(=C\c1cc(C)c(O)c(C)c1)C2=O	Weak activity	Weak activity	Weak activity	Weak activity	Weak activity	Weak activity	4.52														Cytotoxicity (K562 [7]): Weak activity; Cytotoxicity (L1210 [8]): Weak activity; Cytotoxicity (MCF7 [9]): Weak activity; Cytotoxicity (MOLT-4 [10]): Weak activity; Cytotoxicity (NIH3T3 [11]): Weak activity; Cytotoxicity (WI-38 [12]): Weak activity; Cytotoxicity (WIL2 [13]): Weak activity
COc1cc2c(cc1OC)C(=O)/C(=C/c1ccc(N)cc1)CC2	Weak activity	Weak activity	Weak activity	Weak activity	Weak activity	Weak activity	4.40														Cytotoxicity (K562 [7]): Weak activity; Cytotoxicity (L1210 [8]): Weak activity; Cytotoxicity (MCF7 [9]): Weak activity; Cytotoxicity (MOLT-4 [10]): Weak activity; Cytotoxicity (NIH3T3 [11]): Weak activity; Cytotoxicity (WI-38 [12]): Weak activity; Cytotoxicity (WIL2 [13]): Weak activity
Cc1cc(/C=C2\Cc3cc4c(cc3C2=O)OCO4)cc(C)c1O							< 4.30	inactive	inactive	inactive	inactive	inactive	inactive	inactive	inactive	inactive	inactive	inactive	inactive	inactive	
COc1ccc(/C=C2\CCc3cc(OC)c(OC)cc3C2=O)c(OC)c1							< 4.30	inactive	inactive	inactive	inactive	inactive	inactive	inactive	inactive	inactive	inactive	inactive	inactive	inactive	
COc1cc2c(c([N+](=O)[O-])c1OC)C(=O)/C(=C/c1cc(C)c(O)c(C)c1)C2							< 4.30	inactive	inactive	inactive	inactive	inactive	inactive	inactive	inactive	inactive	inactive	inactive	inactive	inactive	
COc1ccc(/C=C2\CCc3cc(OC)c(OC)cc3C2=O)cc1OC							< 4.30	inactive	inactive	inactive	inactive	inactive	inactive	inactive	inactive	inactive	inactive	inactive	inactive	inactive	
O=C1/C(=C/c2cc(Cl)cc(Cl)c2)Cc2cc(O)c(O)cc21							< 4.30	inactive	inactive	inactive	inactive	inactive	inactive	inactive	inactive	inactive	inactive	inactive	inactive	inactive	
COc1ccc2c(c1)C/C(=C\c1cc(C)c(O)c(C)c1)C2=O							< 4.30	inactive	inactive	inactive	inactive	inactive	inactive	inactive	inactive	inactive	inactive	inactive	inactive	inactive	
